Source: patent US8501433B2, “Solvent for chromogenic substrate solution” (Pierce Biotechnology, Inc., priority 2002, dated 2013)

Assay: Dissolution of X-gal (and antibiotics) in non-toxic solvents
Format: physicochemical
Settings: non-toxic solvent solutions of the invention
Description: A combination of essential oil was extracted with chloroform in order to remove part of the oil phase, and create a semi-precipitated emulsion. For example, 20 ml of citrus extract, pine terpenoids, limonene oils and linseed oil was mixed with 20 ml of Chloroform by vigorously shaking in a 50 ml falcon tube. The resulting mix was let stand for approximately one day, and then the upper phase was transferred to a 15 ml falcon tube.

In the case of `CC1(C)S[C@@H]2[C@H](NC(=O)[C@H](N)c3ccccc3)C(=O)N2[C@H]1C(=O)O` [Ampicillin], the “dissolution in the same solutions as X-gal” value (from here on “dissolution”) is reported as “stable dissolution”.

With `O=C(N[C@H](CO)[C@H](O)c1ccc([N+](=O)[O-])cc1)C(Cl)Cl` [Chloramphenicol] the “dissolution” value was “stable dissolution”.

With `CN(C)[C@@H]1C(=O)C(C(N)=O)=C(O)[C@@]2(O)C(=O)C3=C(O)c4c(O)cccc4[C@@](C)(O)[C@H]3C[C@@H]12` [Tetracyclin] the “dissolution” value was “stable dissolution”.
